Test results taken from patent US8410161B2, “Thioxanthone ring system derivatives” (National Defense Medical Center, priority 2010, dated 2013).

Legend:
A3 cell lines = test: MTT assay, A3 cell lines (lung cancer stem cell); type: cell-based
Source text: Please to FIG. 4B, various cell viabilities of the A3 cell lines can be obtained through the MTT assay and illustrated in FIG. 4B while the compounds No. 1˜30 are used to treat A3 cell lines, wherein A3 cell lines are lung cancer stem cell.

A control cell lines = test: MTT assay, A control cell lines (lung cancer cell); type: cell-based
Source text: Please refer to Table 1 and FIGS. 4A-4C. According to a MTT assay (Table 1), various cell viabilities of the A control cell lines can be obtained and illustrated in FIG. 4A while the compounds No. 2˜30 are used to treat A control cell lines, wherein A control cell lines are lung cancer cell.

HEL299 fibroblast = test: MTT assay, HEL299 fibroblast; type: cell-based
Source text: (§1) Please refer to FIG. 4C, various cell viabilities of the HEL299 cell lines can be obtained through the MTT assay while the compounds No. 1˜30 are used to treat HEL299 cell lines, wherein HEL299 cell lines are fibroblast.

[1] = MTT assay, HEL299 fibroblast; type: cell-based; conditions: human
Source text: as §1

U251 = test: NCI in vitro DTP human cell line screen, U251; type: cell-based; conditions: CNS Cancer, 1.00E−5 Molar
Description: (§2) Then, a cell toxicity assay of the cancer lines made by National Cancer Institute will be discussed as follows. The cell toxicity assay is performed by choosing ten compounds (existing certification numbers) from the 59 compounds disclosed in the present invention first.

HOP-92 = test: NCI in vitro DTP human cell line screen, HOP-92; type: cell-based; conditions: Non-Small Cell Lung Cancer, 1.00E−5 Molar
Description: as §2

NCI-H322M = test: NCI in vitro DTP human cell line screen, NCI-H322M; type: cell-based; conditions: Non-Small Cell Lung Cancer, 1.00E−5 Molar
Description: as §2

HCT-116 = test: NCI in vitro DTP human cell line screen, HCT-116; type: cell-based; conditions: Colon Cancer, 1.00E−5 Molar
Description: as §2

DU145 = test: NCI in vitro DTP human cell line screen, DU145; type: cell-based; conditions: Prostate Cancer, 1.00E−5 Molar
Description: as §2

SNB-75 = test: NCI in vitro DTP human cell line screen, SNB-75; type: cell-based; conditions: CNS Cancer, 1.00E−5 Molar
Description: as §2

CAKI-1 = test: NCI in vitro DTP human cell line screen, CAKI-1; type: cell-based; conditions: Renal Cancer, 1.00E−5 Molar
Description: as §2

K562 = test: NCI in vitro DTP human cell line screen, K562; type: cell-based; conditions: Leukemia, 1.00E−5 Molar
Description: as §2

IGROV1 = test: NCI in vitro DTP human cell line screen, IGROV1; type: cell-based; conditions: Ovarian Cancer, 1.00E−5 Molar
Description: as §2

EKVX = test: NCI in vitro DTP human cell line screen, EKVX; type: cell-based; conditions: Non-Small Cell Lung Cancer, 1.00E−5 Molar
Description: as §2

OVCAR-4 = test: NCI in vitro DTP human cell line screen, OVCAR-4; type: cell-based; conditions: Ovarian Cancer, 1.00E−5 Molar
Description: as §2

SK-MEL-2 = test: NCI in vitro DTP human cell line screen, SK-MEL-2; type: cell-based; conditions: Melanoma, 1.00E−5 Molar
Description: as §2

60 cancer lines = test: NCI cell toxicity assay of 60 cancer lines, whole panel summary; type: cell-based, human; conditions: mean over all cell lines; 1.00E−5 Molar
Description: as §2

SF-539 = test: NCI in vitro DTP human cell line screen, SF-539; type: cell-based; conditions: CNS Cancer, 1.00E−5 Molar
Description: as §2

LOX IMVI = test: NCI in vitro DTP human cell line screen, LOX IMVI; type: cell-based; conditions: Melanoma, 1.00E−5 Molar
Description: as §2

TK-10 = test: NCI in vitro DTP human cell line screen, TK-10; type: cell-based; conditions: Renal Cancer, 1.00E−5 Molar
Description: as §2

SK-MEL-28 = test: NCI in vitro DTP human cell line screen, SK-MEL-28; type: cell-based; conditions: Melanoma, 1.00E−5 Molar
Description: as §2

HT29 = test: NCI in vitro DTP human cell line screen, HT29; type: cell-based; conditions: Colon Cancer, 1.00E−5 Molar
Description: as §2

SNB-19 = test: NCI in vitro DTP human cell line screen, SNB-19; type: cell-based; conditions: CNS Cancer, 1.00E−5 Molar
Description: as §2

UO-31 = test: NCI in vitro DTP human cell line screen, UO-31; type: cell-based; conditions: Renal Cancer, 1.00E−5 Molar
Description: as §2

PC-3 = test: NCI in vitro DTP human cell line screen, PC-3; type: cell-based; conditions: Prostate Cancer, 1.00E−5 Molar
Description: as §2

BT-549 = test: NCI in vitro DTP human cell line screen, BT-549; type: cell-based; conditions: Breast Cancer, 1.00E−5 Molar
Description: as §2

M14 = test: NCI in vitro DTP human cell line screen, M14; type: cell-based; conditions: Melanoma, 1.00E−5 Molar
Description: as §2

SK-MEL-5 = test: NCI in vitro DTP human cell line screen, SK-MEL-5; type: cell-based; conditions: Melanoma, 1.00E−5 Molar
Description: as §2

RPMI-8226 = test: NCI in vitro DTP human cell line screen, RPMI-8226; type: cell-based; conditions: Leukemia, 1.00E−5 Molar
Description: as §2

KM12 = test: NCI in vitro DTP human cell line screen, KM12; type: cell-based; conditions: Colon Cancer, 1.00E−5 Molar
Description: as §2

OVCAR-5 = test: NCI in vitro DTP human cell line screen, OVCAR-5; type: cell-based; conditions: Ovarian Cancer, 1.00E−5 Molar
Description: as §2

SF-295 = test: NCI in vitro DTP human cell line screen, SF-295; type: cell-based; conditions: CNS Cancer, 1.00E−5 Molar
Description: as §2

SW-620 = test: NCI in vitro DTP human cell line screen, SW-620; type: cell-based; conditions: Colon Cancer, 1.00E−5 Molar
Description: as §2

NCI-H460 = test: NCI in vitro DTP human cell line screen, NCI-H460; type: cell-based; conditions: Non-Small Cell Lung Cancer, 1.00E−5 Molar
Description: as §2

HCC-2998 = test: NCI in vitro DTP human cell line screen, HCC-2998; type: cell-based; conditions: Colon Cancer, 1.00E−5 Molar
Description: as §2

786-0 = test: NCI in vitro DTP human cell line screen, 786-0; type: cell-based; conditions: Renal Cancer, 1.00E−5 Molar
Description: as §2

CCRF-CEM = test: NCI in vitro DTP human cell line screen, CCRF-CEM; type: cell-based; conditions: Leukemia, 1.00E−5 Molar
Description: as §2

MOLT-4 = test: NCI in vitro DTP human cell line screen, MOLT-4; type: cell-based; conditions: Leukemia, 1.00E−5 Molar
Description: as §2

MALME-3M = test: NCI in vitro DTP human cell line screen, MALME-3M; type: cell-based; conditions: Melanoma, 1.00E−5 Molar
Description: as §2

T-47D = test: NCI in vitro DTP human cell line screen, T-47D; type: cell-based; conditions: Breast Cancer, 1.00E−5 Molar
Description: as §2

NCI-H23 = test: NCI in vitro DTP human cell line screen, NCI-H23; type: cell-based; conditions: Non-Small Cell Lung Cancer, 1.00E−5 Molar
Description: as §2

SK-OV-3 = test: NCI in vitro DTP human cell line screen, SK-OV-3; type: cell-based; conditions: Ovarian Cancer, 1.00E−5 Molar
Description: as §2

RXF 393 = test: NCI in vitro DTP human cell line screen, RXF 393; type: cell-based; conditions: Renal Cancer, 1.00E−5 Molar
Description: as §2

OVCAR-8 = test: NCI in vitro DTP human cell line screen, OVCAR-8; type: cell-based; conditions: Ovarian Cancer, 1.00E−5 Molar
Description: as §2

MDA-MB-435 = test: NCI in vitro DTP human cell line screen, MDA-MB-435; type: cell-based; conditions: Melanoma, 1.00E−5 Molar
Description: as §2

UACC-62 = test: NCI in vitro DTP human cell line screen, UACC-62; type: cell-based; conditions: Melanoma, 1.00E−5 Molar
Description: as §2

NCI/ADR-RES = test: NCI in vitro DTP human cell line screen, NCI/ADR-RES; type: cell-based; conditions: Ovarian Cancer, 1.00E−5 Molar
Description: as §2

MCF7 = test: NCI in vitro DTP human cell line screen, MCF7; type: cell-based; conditions: Breast Cancer, 1.00E−5 Molar
Description: as §2

SF-268 = test: NCI in vitro DTP human cell line screen, SF-268; type: cell-based; conditions: CNS Cancer, 1.00E−5 Molar
Description: as §2

SN12C = test: NCI in vitro DTP human cell line screen, SN12C; type: cell-based; conditions: Renal Cancer, 1.00E−5 Molar
Description: as §2

HS 578-T = test: NCI in vitro DTP human cell line screen, HS 578-T; type: cell-based; conditions: Breast Cancer, 1.00E−5 Molar
Description: as §2

MDA-MB-231/ATCC = test: NCI in vitro DTP human cell line screen, MDA-MB-231/ATCC; type: cell-based; conditions: Breast Cancer, 1.00E−5 Molar
Description: as §2

MDA-MB-468 = test: NCI in vitro DTP human cell line screen, MDA-MB-468; type: cell-based; conditions: Breast Cancer, 1.00E−5 Molar
Description: as §2

NCI-H226 = test: NCI in vitro DTP human cell line screen, NCI-H226; type: cell-based; conditions: Non-Small Cell Lung Cancer, 1.00E−5 Molar
Description: as §2

ACHN = test: NCI in vitro DTP human cell line screen, ACHN; type: cell-based; conditions: Renal Cancer, 1.00E−5 Molar
Description: as §2

OVCAR-3 = test: NCI in vitro DTP human cell line screen, OVCAR-3; type: cell-based; conditions: Ovarian Cancer, 1.00E−5 Molar
Description: as §2

HL-60(TB) = test: NCI in vitro DTP human cell line screen, HL-60(TB); type: cell-based; conditions: Leukemia, 1.00E−5 Molar
Description: as §2

NCI-H522 = test: NCI in vitro DTP human cell line screen, NCI-H522; type: cell-based; conditions: Non-Small Cell Lung Cancer, 1.00E−5 Molar
Description: as §2

SR = test: NCI in vitro DTP human cell line screen, SR; type: cell-based; conditions: Leukemia, 1.00E−5 Molar
Description: as §2

COLO 205 = test: NCI in vitro DTP human cell line screen, COLO 205; type: cell-based; conditions: Colon Cancer, 1.00E−5 Molar
Description: as §2

UACC-257 = test: NCI in vitro DTP human cell line screen, UACC-257; type: cell-based; conditions: Melanoma, 1.00E−5 Molar
Description: as §2

HCT-15 = test: NCI in vitro DTP human cell line screen, HCT-15; type: cell-based; conditions: Colon Cancer, 1.00E−5 Molar
Description: as §2

[2] = summary of MTT cell viabilities

O=c1c2ccccc2sc2c(Cl)c(SCc3ccc(Br)cc3)ccc12 [No. 25, 3-(4-Bromobenzylthio)-4-chloro-9H-thioxanthen-9-one]
cell viabilities of A3 cell lines (MTT assay) (A3 cell lines): 61.5%
inhibition effect on A3 cell line (in words) (A3 cell lines; [2]): inhibition effect
cell viabilities of A control cell lines (MTT assay) (A control cell lines): 40.8%
inhibition effect on A control cell line (in words) (A control cell lines; [2]): inhibition effect
cytotoxicity effect on the normal fibroblast (in words) (HEL299 fibroblast): without the cytotoxicity effect
viability [1]: 79.3%

O=c1c2ccccc2sc2c(Cl)c(Sc3ccccc3)ccc12 [No. 6, 4-Chloro-3-(phenylthio)-9H-thioxanthen-9-one]
Growth Percent (U251): 94.85%
cell viabilities of A3 cell lines (MTT assay) (A3 cell lines): 103 ± 13.0%
cell viabilities of A control cell lines (MTT assay) (A control cell lines): 99.7 ± 4.76%
Growth Percent (HOP-92): 76.04%
Growth Percent (NCI-H322M): 96.11%
Growth Percent (HCT-116): 98.18%
Growth Percent (DU145): 108.05%
Growth Percent (SNB-75): 82.75%
Growth Percent (CAKI-1): 84.00%
Growth Percent (K562): 101.65%
Growth Percent (IGROV1): 91.62%
Growth Percent (EKVX): 94.90%
Growth Percent (OVCAR-4): 99.56%
Growth Percent (SK-MEL-2): 104.71%
Growth Percent, Mean (60 cancer lines): 96.75%
Growth Percent (SF-539): 104.85%
Growth Percent (LOX IMVI): 96.25%
Growth Percent (TK-10): 97.85%
Growth Percent (SK-MEL-28): 113.07%
Growth Percent (HT29): 102.56%
Growth Percent (SNB-19): 98.01%
Growth Percent (UO-31): 73.68%
Growth Percent (PC-3): 90.81%
Growth Percent (BT-549): 107.30%
Growth Percent (M14): 104.30%
Growth Percent (SK-MEL-5): 95.50%
Growth Percent (RPMI-8226): 102.11%
Growth Percent (KM12): 99.82%
Growth Percent (OVCAR-5): 104.51%
Growth Percent (SF-295): 100.33%
Growth Percent (SW-620): 96.96%
Growth Percent (NCI-H460): 108.87%
Growth Percent (HCC-2998): 106.34%
Growth Percent (786-0): 111.45%
Growth Percent (CCRF-CEM): 96.58%
viability [1]: 107 ± 2.62%
Growth Percent (MOLT-4): 99.77%
Growth Percent (MALME-3M): 92.44%
Growth Percent (T-47D): 87.90%
Growth Percent (NCI-H23): 84.67%
Growth Percent (SK-OV-3): 96.13%
Growth Percent (RXF 393): 110.95%
Growth Percent (OVCAR-8): 94.68%
Growth Percent (MDA-MB-435): 103.22%
Growth Percent (UACC-62): 79.70%
Growth Percent (NCI/ADR-RES): 96.88%
Growth Percent (MCF7): 82.14%
Growth Percent (SF-268): 93.39%
Growth Percent (SN12C): 87.55%
Growth Percent (HS 578-T): 119.59%
Growth Percent (MDA-MB-231/ATCC): 93.94%
Growth Percent (MDA-MB-468): 82.54%
Growth Percent (NCI-H226): 85.36%
Growth Percent (ACHN): 94.03%
Growth Percent (OVCAR-3): 108.01%
Growth Percent (HL-60(TB)): 103.53%
Growth Percent (NCI-H522): 84.11%
Growth Percent (SR): 91.41%
Growth Percent (COLO 205): 103.82%
Growth Percent (UACC-257): 102.79%
Growth Percent (HCT-15): 92.60%
